Laboratory results taken from patent publication US8846949B2, “Pyrrolopyrazoles as N-type calcium channel blockers” (Janssen Pharmaceutica NV, priority 2012, dated 2014).
Where two headings read alike, the source gives them in different places.

Columns and labels:
[1] = target: T1, N-type calcium channel α1B (Cav2.2), β3 and α2δ subunits (Homo sapiens, UniProt Q00975); assay: Functional assay, antagonism of N-type calcium channel (FDSS calcium mobilization response to KCl depolarization); type: cell-based; conditions: for inhibition at 0.33 µM: 0.33 μM compound, FDSS, 50 mM KCl; for IC50: HEK stable cell line, 50 mM KCl depolarization, six-point concentration-response
T1 construct: expressed in transfected cells
How it was run: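 HEK cells stably co-expressing α1B (Cav2.2), β3 and α2δ subunits were loaded with calcium dye, preincubated with compound for 5 min, then depolarized with 50 mM KCl and read for 3 min by FDSS fluorescence. IC50 from six-point curves, normalized to KCl maximum and buffer minimum.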

N-type calcium channel = target: T2, N-type calcium channel (Homo sapiens, UniProt Q00975); assay: Automated electrophysiology assay (QPatch-HT whole-cell patch clamp); type: cell-based
T2 construct: expressed in transfected cells
Description: Cells were grown in T175 flasks to 50%-90% confluence. At the time of use, cells were enzymatically treated with Detachin (Genlantis, San Diego, Calif. USA), centrifuged, rinsed, and resuspended in 293 SFM II media (Life Technologies, Grand Island, N.Y. U.S.A.) supplemented with 25 mM HEPES (Sigma-Aldrich, St. Louis, Mo. U.S.A.) to a concentration of 2-3×10^6 cells/mL. Cells were added to the automated cell preparation station on the QPatch-HT (Sophion Biosciences, North Brunswick, N.J. U.S.A.), and following a 10- to 30-min recovery period with gentle stirring, the assay protocol was initiated. During the automated cell preparation, cells were collected, centrifuged and resuspended in an extracellular (EC) solution containing 132 mM NaCl, 1.8 mM CaCl2, 5.4 mM KCl, 0.8 mM MgCl2, 10 mM glucose, and 10 mM HEPES (pH=7.4), adjusted with sucrose to approximately 315 m0sm. The QPlate was primed with an intracellular solution containing 135 mM CsCl, 10 mM EGTA, 4 MgATP, 0.3 NaGTP, and 20 mM HEPES (pH=7.2), adjusted to approximately 290 m0sm with deionized water and the EC solution. Cells were added to the prepared QPlate wells by robotic pipettes of the QPatch-HT.
For cells determined to be in stable whole-cell patch clamp, the EC solution was replaced with a barium (Ba)/triethylammonium (TEA) solution containing 140 mM TEA-Cl, 10 mM BaCl2, 0.8 mM MgCl2, 10 mM glucose and 10 mM HEPES (pH=7.4). High (40 mM) BaCl2 concentrations were made with adjustments to TEA-C1 (90 mM) to maintain the osmolarity. From a resting potential of −80 mV, a train of depolarizing pulses (15 pulses at 5 Hz, +20 mV) was delivered to the cell once every 30 sec for eight trains (4 min total), and the resulting currents were measured during a control period (no compound). This protocol was repeated for each subsequent addition of control buffer with or without compound (three periods total, each with four trains). The current generated in the 1st and 15th pulses of the last train of each period in the presence of each drug concentration was normalized to the current generated during the control period at the respective pulses (representing low- and high-frequency stimulation, respectively). Data from both the second and third drug application periods were analyzed for each cell. A final addition of Ba/TEA solution containing 60-100 μM CdCl2 was made to block all N-type current and to “zero” the currents for each cell. All buffer/compound additions were made using a “spitting” feature of the QPatch-HT, which added three repetitions of 5 μL solution at the beginning of each recording period.
To examine closed-state inactivation, cells were subjected to a channel-activating 50-msec depolarizing step pulse from −80 to +10 mV, followed by a 5-sec nonactivating step to voltages ranging from −130 to −60 mV in 10 mV increments and then a 50-ms step from −80 to +10 mV to assess the remaining current. Currents from the activating voltage pulse were normalized to the peak value of the test pulse following the −130 mV step and fit to a Boltzman equation to obtain the V1/2. Roscovitine (Sigma-Aldrich) was prepared as a 100 mM stock in dimethyl sulfoxide and diluted to the indicated working concentrations. […]. Compounds of Formula (I) were diluted first into dimethyl sulfoxide and then into 10% pluronic F-127 in water (Life Technologies), sonicated for 1 min and diluted into EC buffer. Vehicle controls were run in parallel in all experiments.
Unless otherwise indicated, statistics for comparing among electrophysiological results utilized a one-way analysis of variance with Fisher's least squares determination test for pair-wise comparison.

[2] = high frequency (15th pulse of train, 5 Hz), read-out: QPatch at High Frequency % Inhibition
[3] = low frequency (1st pulse of train), read-out: QPatch at Low Frequency % Inhibition

T2 sequence (Q00975 whole entry): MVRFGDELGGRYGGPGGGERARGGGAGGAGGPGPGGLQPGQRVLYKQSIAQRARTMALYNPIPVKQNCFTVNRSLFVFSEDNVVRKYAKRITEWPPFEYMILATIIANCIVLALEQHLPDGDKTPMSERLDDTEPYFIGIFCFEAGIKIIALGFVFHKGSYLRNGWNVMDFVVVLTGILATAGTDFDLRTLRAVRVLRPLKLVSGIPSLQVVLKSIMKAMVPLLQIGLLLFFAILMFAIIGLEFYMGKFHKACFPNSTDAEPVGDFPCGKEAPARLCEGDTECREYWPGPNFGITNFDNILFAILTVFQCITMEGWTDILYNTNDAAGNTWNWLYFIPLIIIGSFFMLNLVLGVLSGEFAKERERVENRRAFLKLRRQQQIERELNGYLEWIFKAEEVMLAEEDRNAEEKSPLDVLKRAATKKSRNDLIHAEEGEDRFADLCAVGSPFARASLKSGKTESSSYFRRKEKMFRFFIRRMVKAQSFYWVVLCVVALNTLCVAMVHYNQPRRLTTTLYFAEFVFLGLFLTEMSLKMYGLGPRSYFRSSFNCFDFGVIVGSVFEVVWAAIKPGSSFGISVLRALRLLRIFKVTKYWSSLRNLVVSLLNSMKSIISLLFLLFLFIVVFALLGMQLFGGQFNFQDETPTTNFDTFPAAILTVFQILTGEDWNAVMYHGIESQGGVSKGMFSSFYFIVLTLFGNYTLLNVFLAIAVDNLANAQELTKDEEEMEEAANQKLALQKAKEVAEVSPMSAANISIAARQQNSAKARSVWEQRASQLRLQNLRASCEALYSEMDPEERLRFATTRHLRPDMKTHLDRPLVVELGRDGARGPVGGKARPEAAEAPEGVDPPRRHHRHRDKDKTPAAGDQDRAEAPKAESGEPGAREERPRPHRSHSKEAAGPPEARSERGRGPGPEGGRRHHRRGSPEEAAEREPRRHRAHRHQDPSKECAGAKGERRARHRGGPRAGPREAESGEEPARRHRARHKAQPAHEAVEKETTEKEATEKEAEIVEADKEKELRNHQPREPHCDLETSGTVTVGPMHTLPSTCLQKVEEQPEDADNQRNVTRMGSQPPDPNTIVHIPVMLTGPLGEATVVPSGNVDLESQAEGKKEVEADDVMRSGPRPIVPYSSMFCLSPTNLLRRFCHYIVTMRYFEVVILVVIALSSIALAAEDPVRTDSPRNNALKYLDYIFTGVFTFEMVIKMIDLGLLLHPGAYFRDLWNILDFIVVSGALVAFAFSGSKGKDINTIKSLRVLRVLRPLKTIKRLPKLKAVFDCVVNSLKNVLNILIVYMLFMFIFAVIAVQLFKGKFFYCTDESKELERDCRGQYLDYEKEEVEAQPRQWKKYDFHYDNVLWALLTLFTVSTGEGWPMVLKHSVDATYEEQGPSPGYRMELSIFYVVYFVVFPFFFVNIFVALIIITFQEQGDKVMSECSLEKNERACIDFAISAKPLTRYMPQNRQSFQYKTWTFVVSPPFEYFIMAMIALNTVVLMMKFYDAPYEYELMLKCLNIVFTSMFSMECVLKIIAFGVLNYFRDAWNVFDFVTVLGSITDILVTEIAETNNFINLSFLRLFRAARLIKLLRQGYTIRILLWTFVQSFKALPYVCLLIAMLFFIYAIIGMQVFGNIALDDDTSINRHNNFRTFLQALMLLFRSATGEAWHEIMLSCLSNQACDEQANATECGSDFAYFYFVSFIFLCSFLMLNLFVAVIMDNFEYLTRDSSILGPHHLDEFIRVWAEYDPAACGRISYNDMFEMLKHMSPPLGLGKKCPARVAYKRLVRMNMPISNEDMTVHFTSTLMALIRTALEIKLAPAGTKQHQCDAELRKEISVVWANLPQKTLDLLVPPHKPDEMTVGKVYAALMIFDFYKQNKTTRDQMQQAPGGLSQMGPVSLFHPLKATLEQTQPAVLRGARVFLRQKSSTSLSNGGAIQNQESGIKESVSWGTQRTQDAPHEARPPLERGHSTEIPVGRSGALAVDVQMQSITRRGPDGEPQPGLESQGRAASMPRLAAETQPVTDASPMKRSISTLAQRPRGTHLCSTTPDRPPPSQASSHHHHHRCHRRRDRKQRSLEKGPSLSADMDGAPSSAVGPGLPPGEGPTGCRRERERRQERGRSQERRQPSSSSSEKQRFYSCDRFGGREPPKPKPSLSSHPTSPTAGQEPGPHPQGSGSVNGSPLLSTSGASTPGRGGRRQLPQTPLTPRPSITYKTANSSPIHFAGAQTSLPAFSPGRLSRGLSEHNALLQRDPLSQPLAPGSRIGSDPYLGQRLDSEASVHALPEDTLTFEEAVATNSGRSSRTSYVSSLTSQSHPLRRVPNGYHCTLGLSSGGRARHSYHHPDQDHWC
T2 sequence (P54284 whole entry partner): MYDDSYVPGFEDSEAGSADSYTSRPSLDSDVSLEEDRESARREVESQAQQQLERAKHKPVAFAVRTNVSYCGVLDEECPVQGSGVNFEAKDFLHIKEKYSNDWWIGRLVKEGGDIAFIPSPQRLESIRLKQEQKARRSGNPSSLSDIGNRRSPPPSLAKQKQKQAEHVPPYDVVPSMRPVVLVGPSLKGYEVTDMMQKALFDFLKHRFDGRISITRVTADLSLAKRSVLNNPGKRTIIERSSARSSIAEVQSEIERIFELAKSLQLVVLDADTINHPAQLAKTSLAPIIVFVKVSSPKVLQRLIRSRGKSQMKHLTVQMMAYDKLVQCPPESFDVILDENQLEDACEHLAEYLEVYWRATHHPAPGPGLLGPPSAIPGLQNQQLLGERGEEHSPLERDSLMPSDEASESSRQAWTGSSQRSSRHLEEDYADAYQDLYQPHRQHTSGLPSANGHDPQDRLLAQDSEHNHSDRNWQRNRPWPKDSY
T2 sequence (P54289 25-956 partner limits assumed): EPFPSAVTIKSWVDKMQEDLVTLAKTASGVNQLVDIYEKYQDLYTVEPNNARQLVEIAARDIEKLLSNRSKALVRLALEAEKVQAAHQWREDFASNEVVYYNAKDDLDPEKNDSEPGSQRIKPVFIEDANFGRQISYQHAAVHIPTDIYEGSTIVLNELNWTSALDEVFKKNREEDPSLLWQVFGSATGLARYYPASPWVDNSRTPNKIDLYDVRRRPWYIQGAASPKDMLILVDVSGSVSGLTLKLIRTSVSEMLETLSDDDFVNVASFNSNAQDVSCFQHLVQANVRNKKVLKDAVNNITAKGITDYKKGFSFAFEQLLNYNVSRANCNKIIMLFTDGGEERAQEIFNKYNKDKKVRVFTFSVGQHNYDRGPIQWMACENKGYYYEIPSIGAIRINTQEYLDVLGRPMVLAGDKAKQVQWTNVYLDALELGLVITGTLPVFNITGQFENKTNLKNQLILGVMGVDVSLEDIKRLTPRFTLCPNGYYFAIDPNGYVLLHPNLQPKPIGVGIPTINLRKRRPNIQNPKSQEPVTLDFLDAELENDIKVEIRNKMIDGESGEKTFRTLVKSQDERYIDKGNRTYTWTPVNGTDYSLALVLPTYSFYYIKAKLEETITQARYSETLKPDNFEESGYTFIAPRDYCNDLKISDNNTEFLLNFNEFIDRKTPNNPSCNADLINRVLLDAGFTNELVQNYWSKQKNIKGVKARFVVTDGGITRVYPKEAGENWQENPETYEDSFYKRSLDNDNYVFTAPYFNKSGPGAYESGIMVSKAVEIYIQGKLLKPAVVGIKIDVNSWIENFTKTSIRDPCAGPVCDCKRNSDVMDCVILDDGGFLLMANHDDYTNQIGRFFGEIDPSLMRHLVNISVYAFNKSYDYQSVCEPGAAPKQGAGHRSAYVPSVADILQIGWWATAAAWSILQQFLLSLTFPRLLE
T2 sequence (P54289 957-1103 partner limits assumed): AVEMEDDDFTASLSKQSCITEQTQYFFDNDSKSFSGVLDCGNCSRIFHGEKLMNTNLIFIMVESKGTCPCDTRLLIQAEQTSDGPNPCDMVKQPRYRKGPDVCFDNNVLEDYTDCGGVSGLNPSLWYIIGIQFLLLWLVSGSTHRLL
T1 sequence (Q00975 whole entry): as the sequence (Q00975 whole entry) above
T1 sequence (P54284 whole entry partner): as the sequence (P54284 whole entry partner) above
T1 sequence (P54289 25-956 partner limits assumed): as the sequence (P54289 25-956 partner limits assumed) above
T1 sequence (P54289 957-1103 partner limits assumed): as the sequence (P54289 957-1103 partner limits assumed) above

`COc1cc(F)ccc1-n1nc2c(c1-c1ccc(Cl)cc1)CN(S(=O)(=O)N1CCC(C)CC1)C2` [Cpd 73, 3-(4-Chlorophenyl)-2-(4-fluoro-2-methoxyphenyl)-5-[(4-methylpiperidin-1-yl)sulfonyl]-2,4,5,6-tetrahydropyrrolo[3,4-c]pyrazole] gave an inhibition at 0.33 µM [1] of 93%, an IC50 [1] of 0.024 µM and an inhibition at 0.1 µM (N-type calcium channel; [2]) of -28%. For the same compound, the inhibition at 0.1 µM (N-type calcium channel; [3]) was -34%.
`CCc1ccccc1-n1nc2c(c1-c1ccc(Cl)cc1)CN(C(=O)c1ccncc1)C2` [Cpd 5, 3-(4-Chlorophenyl)-2-(2-ethylphenyl)-5-(pyridin-4-ylcarbonyl)-2,4,5,6-tetrahydropyrrolo[3,4-c]pyrazole] was tested, and the IC50 [1] was 0.2 µM, the inhibition at 0.25 µM (N-type calcium channel; [2]) was 12% and the inhibition at 0.25 µM (N-type calcium channel; [3]) was 0%. For the same compound, the inhibition at 1 µM (N-type calcium channel; [2]) was 37% and the inhibition at 1 µM (N-type calcium channel; [3]) was 11%.
`CC(C)CS(=O)(=O)N1Cc2nn(-c3cccc4c3OCO4)c(-c3ccc(Cl)cc3)c2C1` [Cpd 82, 2-(1,3-Benzodioxol-4-yl)-3-(4-chlorophenyl)-5-[(2-methylpropyl)sulfonyl]-2,4,5,6-tetrahydropyrrolo[3,4-c]pyrazole] gave an inhibition at 0.33 µM [1] of 87%, an IC50 [1] of 0.028 µM and an inhibition at 0.1 µM (N-type calcium channel; [2]) of 15%. It also gave an inhibition at 0.1 µM (N-type calcium channel; [3]) of 4%.
For `COc1ccccc1-n1nc2c(c1-c1ccc(Cl)cc1)CN(S(=O)(=O)CCNS(=O)(=O)C(C)C)C2` [Cpd 45, N-(2-{[3-(4-Chlorophenyl)-2-(2-methoxyphenyl)-2,6-dihydropyrrolo[3,4-c]pyrazol-5(4H)-yl]sulfonyl}ethyl)propane-2-sulfonamide], the IC50 [1] was 0.013 µM, the inhibition at 0.1 µM (N-type calcium channel; [2]) was 26% and the inhibition at 0.1 µM (N-type calcium channel; [3]) was 26%.
`COC(=O)CCS(=O)(=O)N1Cc2nn(-c3ccccc3OC(F)(F)F)c(-c3ccc(Cl)cc3)c2C1` [Cpd 47, Methyl 3-{[3-(4-chlorophenyl)-2-[2-(trifluoromethoxy)phenyl]-2,6-dihydropyrrolo[3,4-c]pyrazol-5(4H)-yl]sulfonyl}propanoate] showed an IC50 [1] of 0.031 µM, an inhibition at 0.1 µM (N-type calcium channel; [2]) of 36% and an inhibition at 0.1 µM (N-type calcium channel; [3]) of 8%.
`COc1ccccc1-n1nc2c(c1-c1ccc(Cl)cc1)CN(S(=O)(=O)CCNS(C)(=O)=O)C2` [Cpd 44, N-(2-{[3-(4-Chlorophenyl)-2-(2-methoxyphenyl)-2,6-dihydropyrrolo[3,4-c]pyrazol-5(4H)-yl]sulfonyl}ethyl)methanesulfonamide] gave an IC50 [1] of 0.009 µM, an inhibition at 0.1 µM (N-type calcium channel; [2]) of -5% and an inhibition at 0.1 µM (N-type calcium channel; [3]) of -2%.
In the case of `COc1ccccc1-n1nc2c(c1-c1ccc(Cl)cc1)CN(S(C)(=O)=O)C2` [Cpd 30, 3-(4-Chlorophenyl)-2-(2-methoxyphenyl)-5-(methylsulfonyl)-2,4,5,6-tetrahydropyrrolo[3,4-c]pyrazole], the IC50 [1] is reported as 0.021 µM, the inhibition at 1 µM (N-type calcium channel; [2]) is reported as 49% and the inhibition at 1 µM (N-type calcium channel; [3]) is reported as 28%.
`COc1ccccc1-n1nc2c(c1-c1ccc(Cl)cc1)CN(S(=O)(=O)N1CCCCCC1)C2` [Cpd 55, 5-(Azepan-1-ylsulfonyl)-3-(4-chlorophenyl)-2-(2-methoxyphenyl)-2,4,5,6-tetrahydropyrrolo[3,4-c]pyrazole] gave an IC50 [1] of 0.007 µM, an inhibition at 0.1 µM (N-type calcium channel; [2]) of 54% and an inhibition at 0.1 µM (N-type calcium channel; [3]) of 25%.
Work on `COc1ccccc1-n1nc2c(c1-c1ccc(Cl)cc1)CN(S(=O)(=O)N1C[C@H](C)O[C@@H](C)C1)C2` (mixture of isomers) [Cpd 61, 3-(4-Chlorophenyl)-5-{[(2S,6S)-2,6-dimethylmorpholin-4-yl]sulfonyl}-2-(2-methoxyphenyl)-2,4,5,6-tetrahydropyrrolo[3,4-c]pyrazole] yielded an IC50 [1] of 0.005 µM, an inhibition at 0.1 µM (N-type calcium channel; [2]) of 50% and an inhibition at 0.1 µM (N-type calcium channel; [3]) of 53%.
Work on `COc1ccccc1-n1nc2c(c1-c1ccc(Cl)cc1)CN(S(=O)(=O)N1CCC(C)CC1)C2` [Cpd 57, 3-(4-Chlorophenyl)-2-(2-methoxyphenyl)-5-[(4-methylpiperidin-1-yl)sulfonyl]-2,4,5,6-tetrahydropyrrolo[3,4-c]pyrazole] yielded an inhibition at 0.33 µM [1] of 95%, an IC50 [1] of 0.008 µM and an inhibition at 1 µM (N-type calcium channel; [2]) of 82%. For the same compound, the inhibition at 1 µM (N-type calcium channel; [3]) was 69%.
`CC(C)CS(=O)(=O)N1Cc2nn(-c3cccc4c3OCC4)c(-c3ccc(Cl)cc3)c2C1` [Cpd 85, 3-(4-Chlorophenyl)-2-(2,3-dihydro-1-benzofuran-7-yl)-5-[(2-methylpropyl)sulfonyl]-2,4,5,6-tetrahydropyrrolo[3,4-c]pyrazole] gave an inhibition at 0.33 µM [1] of 94%, an IC50 [1] of 0.014 µM and an inhibition at 0.1 µM (N-type calcium channel; [2]) of 37%. For the same compound, the inhibition at 0.1 µM (N-type calcium channel; [3]) was 13%.
For `CCCC(C)S(=O)(=O)N1Cc2nn(-c3ccc(C)cc3OC)c(-c3ccc(Cl)cc3)c2C1` (stereo not drawn) [Cpd 76, 3-(4-Chlorophenyl)-2-(2-methoxy-4-methylphenyl)-5-[(1-methylbutyl)sulfonyl]-2,4,5,6-tetrahydropyrrolo[3,4-c]pyrazole], the inhibition at 0.33 µM [1] was 90%, the IC50 [1] was 0.021 µM and the inhibition at 1 µM (N-type calcium channel; [2]) was 30%. The inhibition at 1 µM (N-type calcium channel; [3]) was -3%.
Compound `COc1cc(F)ccc1-n1nc2c(c1-c1ccc(Cl)cc1)CN(S(=O)(=O)C(C)C)C2` [Cpd 71, 3-(4-Chlorophenyl)-2-(4-fluoro-2-methoxyphenyl)-5-[(1-methylethyl)sulfonyl]-2,4,5,6-tetrahydropyrrolo[3,4-c]pyrazole] has an inhibition at 0.33 µM [1] of 91%, an IC50 [1] of 0.021 µM and an inhibition at 0.1 µM (N-type calcium channel; [2]) of 1%. The inhibition at 0.1 µM (N-type calcium channel; [3]) was -30%.
`CC(C)S(=O)(=O)N1Cc2nn(-c3ccccc3N(C)C)c(-c3ccc(Cl)cc3)c2C1` [Cpd 88, 2-[3-(4-Chlorophenyl)-5-[(1-methylethyl)sulfonyl]-5,6-dihydropyrrolo[3,4-c]pyrazol-2(4H)-yl]-N,N-dimethylaniline] gave an inhibition at 0.33 µM [1] of 96%, an IC50 [1] of 0.005 µM and an inhibition at 0.1 µM (N-type calcium channel; [2]) of 47%. The inhibition at 0.1 µM (N-type calcium channel; [3]) was 26%.
`COc1ccccc1-n1nc2c(c1-c1ccc(Cl)cc1)CN(S(=O)(=O)N1CCCCC1)C2` [Cpd 62, 3-(4-Chlorophenyl)-2-(2-methoxyphenyl)-5-(piperidin-1-ylsulfonyl)-2,4,5,6-tetrahydropyrrolo[3,4-c]pyrazole] showed an IC50 [1] of 0.004 µM, an inhibition at 0.1 µM (N-type calcium channel; [2]) of 45% and an inhibition at 0.1 µM (N-type calcium channel; [3]) of 20%.
`CCc1ccccc1-n1nc2c(c1-c1ccc(Cl)cc1)CN(C(=O)C(F)(F)F)C2` [Cpd 6, 3-(4-Chlorophenyl)-2-(2-ethylphenyl)-5-(trifluoroacetyl)-2,4,5,6-tetrahydropyrrolo[3,4-c]pyrazole] gave an IC50 [1] of 0.18 µM, an inhibition at 1 µM (N-type calcium channel; [2]) of 23% and an inhibition at 1 µM (N-type calcium channel; [3]) of 16%.
In the case of `CC(C)S(=O)(=O)N1Cc2nn(-c3ccccc3OC(F)(F)F)c(-c3ccc(Cl)cc3)c2C1` [Cpd 35, 3-(4-Chlorophenyl)-5-[(1-methylethyl)sulfonyl]-2-[2-(trifluoromethoxy)phenyl]-2,4,5,6-tetrahydropyrrolo[3,4-c]pyrazole], the IC50 [1] is reported as 0.027 µM, the inhibition at 0.25 µM (N-type calcium channel; [2]) is reported as 42% and the inhibition at 0.25 µM (N-type calcium channel; [3]) is reported as 22%.
In the case of `COc1ccccc1-n1nc2c(c1-c1ccc(Cl)cc1)CN(S(=O)(=O)N1CCCC1)C2` [Cpd 60, 3-(4-Chlorophenyl)-2-(2-methoxyphenyl)-5-(pyrrolidin-1-ylsulfonyl)-2,4,5,6-tetrahydropyrrolo[3,4-c]pyrazole], the IC50 [1] is reported as 0.002 µM, the inhibition at 0.1 µM (N-type calcium channel; [2]) is reported as 44% and the inhibition at 0.1 µM (N-type calcium channel; [3]) is reported as 29%.
